# Measurements reported in US20220257631A1, “THERAPEUTIC RNA FOR OVARIAN CANCER” (BIONTECH SE, priority 2019, published 2022).
# B1: RBL005.2: beta-S-ARCA(D1)-hAg-Kozak-CLDN6-2hBgUTR-A30L70 mRNA, encodes human Claudin 6 (SEQ ID NO: 3) (nucleic acid)
# chain: GGGCGAACUAGUAUUCUUCUGGUCCCCACAGACUCAGAGAGAACCCGCCACCAUGGCCUCUGCCGGAAUGCAGAUCCUGGGCGUGGUGCUGACCCUGCUGGGCUGGGUGAAUGGCCUGGUGAGCUGUGCCCUGCCCAUGUGGAAGGUGACAGCCUUCAUUGGCAACAGCAUUGUGGUGGCCCAGGUGGUGUGGGAGGGCCUGUGGAUGAGCUGUGUGGUGCAGAGCACAGGCCAGAUGCAGUGCAAGGUGUAUGACAGCCUGCUGGCCCUGCCUCAGGACCUCCAGGCCGCCAGAGCCCUGUGUGUGAUUGCCCUGCUGGUGGCCCUGUUUGGCCUGCUGGUGUACCUGGCUGGAGCCAAGUGCACCACCUGUGUGGAGGAGAAGGACAGCAAGGCCAGACUGGUGCUGACCUCUGGCAUUGUGUUUGUGAUCUCUGGCGUGCUGACCCUGAUCCCUGUGUGCUGGACAGCCCAUGCCAUCAUCAGAGACUUCUACAACCCUCUGGUGGCCGAGGCCCAGAAAAGAGAGCUGGGAGCCAGCCUGUACCUGGGCUGGGCCGCCUCUGGCCUUCUUCUGCUGGGAGGAGGACUGCUGUGCUGCACCUGCCCCUCUGGCGGCAGCCAGGGCCCCAGCCACUACAUGGCCAGAUACAGCACCUCUGCCCCUGCCAUCAGCAGAGGCCCUUCUGAGUACCCCACCAAGAACUAUGUGUGAGGAGGAUCCCCUCGAGAGCUCGCUUUCUUGCUGUCCAAUUUCUAUUAAAGGUUCCUUUGUUCCCUAAGUCCAACUACUAAACUGGGGGAUAUUAUGAAGGGCCUUGAGCAUCUGGAUUCUGCCUAAUAAAAAACAUUUAUUUUCAUUGCUGCGUCGAGAGCUCGCUUUCUUGCUGUCCAAUUUCUAUUAAAGGUUCCUUUGUUCCCUAAGUCCAACUACUAAACUGGGGGAUAUUAUGAAGGGCCUUGAGCAUCUGGAUUCUGCCUAAUAAAAAACAUUUAUUUUCAUUGCUGCGUCGAGACCUGGUCCAGAGUCGCUAGCAAAAAAAAAAAAAAAAAAAAAAAAAAAAAAGCAUAUGACUAAAAAAAAAAAAAAAAAAAAAAAAAAAAAAAAAAAAAAAAAAAAAAAAAAAAAAAAAAAAAAAAAAAAAA
# modifications: beta-S-ARCA cap, poly(A); CLDN6 RNA
# Assays:
# antigen-specific T cells = assay: IFN-γ ELISPOT of splenocytes of i.v. vaccinated A2/DR1 mice; assay type: in vivo; conditions: 30 μg RNA(LIP) i.v., four to five vaccinations
# [1] = DOTMA biodistribution, LC/MS
# [2] = Respiratory safety, plethysmography (LPT No. 30283); conditions: positive control 30 mg/kg b.w.
# [3] = tested on: CD8+ T cells of healthy donors; assay: In vitro priming of CD8+ T cells with RBL005.2-transfected autologous mDCs, MHC-dextramer staining; assay type: cell-based, human; conditions: three rounds of weekly stimulation
# K562-A2 cells = assay: TCR specificity test, IFN-γ ELISPOT with K562-A2 cells; assay type: cell-based, human
# human DCs = assay: IFN-γ secretion of antigen-specific CD8+ T cells co-incubated with RBL005.2-electroporated DCs (Bio-plex); assay type: cell-based
# Method: Antigen-specific CD8^+ T cells were co-incubated with DCs transfected with 0.25, 1, 4, or 16 μg […] different amounts of RBL005.2. As negative controls only effectors, or DCs transfected with irrelevant antigen coding RNA were used. Columns indicate means of two donors and biological duplicates.
# In addition, we exemplarily tested the ability of the WAREHOUSE RNA drug product RBL005.2 to generate surface-expressed MHC-class I epitopes after electroporation of the RNAs into human DCs. This was determined by co-incubation of the transfected DCs for 24 h with isolated human CD8^+ T cells equipped with the α- and β-chain of a T-cell receptor (TCR) specific for the HLA-A*0201-restricted epitope […] (CLDN691.99). Activation of the antigen-specific cells was analyzed by IFN-γ Bio-plex bead assay (Bio-Rad Laboratories) of the cell culture supernatants. To consider donor variability each of the test items was analyzed using two different donors. RNA of ATM quality was used. The experiments were carried out using up to 16 μg of the RNAs to electroporate the DCs (Study Report No: STR_21591_003).
molecule,measurement,setting,value
"RBL008.1: beta-S-ARCA(D1)-hAg-Kozak-sec-GS-p53-GS-MITD-2hBgUTR-A30L70 mRNA, encodes human p53 (SEQ ID NO: 7)",Antigen-specific T-cell responses (IFN-γ ELISPOT),antigen-specific T cells,induced antigen-specific T-cell responses in vivo in mice expressing human HLA-molecules.
"CCCCCCCC/C=C\CCCCCCCCOCC(C[N+](C)(C)C)OCCCCCCCC/C=C\CCCCCCCC (centres unmarked) [DOTMA, 1,2-di-O-octadecenyl-3-trimethylammonium propane]",Organ with highest DOTMA findings,"[1]; 60 μg RNA, one or two injections, 24 h",highest DOTMA findings were in the spleen
same,DOTMA distribution,"[1]; single RNA(LIP), 26 μg DOTMA, up to 28 days",predominantly found in spleen and liver
same,Factor by which DOTMA is lower in other organs/tissues than spleen and liver,[1]; single dose,10-50
"RBL012.1: beta-S-ARCA(D1)-hAg-Kozak-sec-GS-PRAME-GS-MITD-2hBgUTR-A30L70 mRNA, encodes human PRAME (SEQ ID NO: 11)",Antigen-specific T-cell responses (IFN-γ ELISPOT),antigen-specific T cells,induced antigen-specific T-cell responses in vivo in mice expressing human HLA-molecules.
CC(C[N+](C)(C)C)OC(N)=O.[Cl-] (stereo not drawn) [Carbamyl-β-methylcholine chloride],Pulmonary parameters,[2],expected alterations
B1,CD8+ T cells binding HLA-A*02/RBL005.2 91-99 dextramer,[3],0.462%
same,Antigen-specific T-cell responses (IFN-γ ELISPOT),antigen-specific T cells,induced antigen-specific T-cell responses in vivo in mice expressing human HLA-molecules.
same,Recognition of RBL005.2-transfected K562-A2 cells by isolated TCR,K562-A2 cells,specific recognition
same,Dose dependency of IFN-γ production,"human DCs; 0.25, 1, 4, 16 μg RNA",clear dose dependency
same,IFN-γ production by antigen-specific CD8+ T cells,"human DCs; up to 16 μg RNA electroporated, 24 h, two donors",able to produce IFN-γ
